Results published in US9879058B2, “Use of compounds that selectively modulate astrocytic release of substances through hemichannels of connexins and pannexins, without influencing gap junctions, for the treatment of psychiatric disorders” (Universidad Andres Bello, priority 2012, dated 2018).
“Also recorded” adds a separate entry of the source. Where two headings read alike, the source gives them in different places. No end group written: not given here.

Legend:
Sprague Dowley rats [1] = experiment: Openfield test; type: in vivo, rat; details: for time in the center of the openfield (thigmotaxis): cacotheline 10 μM
Protocol: A. Animals: All procedures involving animals were in accordance to NIH guidelines and with approval of the bioethical committee of the Universidad Andrés Bello. Sprague Dowley rats (˜60 d old, ˜250 g) were caged individually at 22° C., 12/12 h light/dark cycle. The rats remained in their home box throughout the study, and were removed only briefly for drug microinfusions. B. Drugs: For intra hippocampal microinjections Gap19 ([…] (SEQ ID NO: 3), LifeTein, South Plainfield, N.J., USA, >90% purity) was dissolved in PBS to yield a final solution of 100 μM and cacotheline was dissolved in sterile saline to a final concentration of 10 μM. For intravenous injections, cacotheline was dissolved to a final concentration of 10 μM in the blood stream, assuming circulating blood as 7% of body weight. Cacotheline was injected into the caudal vein under 4% isofluorane gas anesthesia. In a control group of rats sterile saline injection of equal volume was injected. C. Dye uptake: Gap junction permeability was determined at room temperature using the scrape-loading/dye transfer (SL/DT) technique, Hela cells were incubated with Carboxy-fluorescin (1 mg/ml) in the same Ca2+ free HEPES-buffered salt solution as above, then the test compound was added, followed byscrape-loading, which was performed with a razor blade. After 3 minutes the cells are washed with HEPES-buffered salt solution and mounted in Fluoromount and examined by epifluorescence. D. Apparatus: All behavioral essays were performed in an openfield made of Plexiglas (60 cm×40 cm) or a dark/light exploration box (70×40 cm; light compartment 40×40 cm, dark compartment 30×40 cm), illuminated by a white light bulb. A video camera was mounted at the top of the chamber to allow digital recording throughout the experiments. E. Surgery and histology: Under ketamine/xylazine anesthesia ([…], respectively), rats were stereotaxically implanted with bilateral 22-gauge stainless steel cannulas aimed 1.0 mm above the ventral hippocampus (5.0 mm posterior to Bregma, 5.0 mm lateral to the midline, and 6.0 mm ventral to the skull surface (Paxinos, G., Watson, C. (1998). The Rat Brain in Stereotaxic Coordinates; Press A, editor, San Diego). The cannulas were fixed with acrylic dental cement and secured by 4 skull screws. A stylus was placed inside the guide cannula to prevent clogging. Rats were given at least 7 days to recover before experimental procedures began.
In all experiments, stylus was removed from the guide cannula, and a 28-gauge injection cannula was inserted through the guide cannula, extending 1.0 mm beyond its tip into the ventral hippocampus. Drugs were infused slowly via the injection cannula, connected by PE20 tubing to Hamilton microsyringes driven by a microinfusion pump. Infusions were of 0.25 μl per hemisphere at a rate of 0.32 μl/min. Following drug infusion, injecting cannulaes were left in place for 10 minutes to allow drug diffusion away from the cannula tip. At the end of all experiments, animals were anesthetized as above and perfused intracardially with saline, 4% buffered paraformaldehyde. Brains were extracted and postfixed in 30% sucrose until density equaled that of sucrose. […] Animals with histological lesions beyond the size of the cannula tip and guide cannula diameter were excluded from the analysis.
F. Behavioral procedures: To assess the effects of TAT-Gap19 on locomotor activity, entire body movements were measured in the openfield and counted as the number of crossings (transitions) between virtual square subdivisions of 10 cm^2 measured offline from digital video recordings. Measures of anxiety included thigmotaxis, rearing activity in the openfield. Transitions between light and dark compartments, number of times the animal peaked from the dark compartment into the lit compartment, and time spent in the lit compartment were measured in the Dark/light box paradigm^(62, 63). G. Data Analysis: Data were expressed as Mean+SD. […]

rats = experiment: Forced swim test (FST); type: in vivo, rat; details: intravenous, 10 μM in the blood stream, 10 minutes before the test
Protocol: A. Methods: To assess depressive-like symptoms the forced swim test (FST) was employed, which was similar to that described elsewhere^(65). On training, rats were individually placed in a transparent Plexiglas cylinder (30 cm diameter×60 cm height) filled with water at 25±2° C. for 15 minutes. 24 h later, the animals were placed again in the cylinder for 5 minutes as described before. After initial vigorous swimming activity, swimming attempts normally cease and the animal adopts a characteristic immobile floating posture. Rats were scored for time to reach immobility and total immobility time by a trained observer from offline video recordings. Immobility was defined as the cessation of limb movements. B. Drugs: Cacotheline was dissolved to a final concentration of 10 μM into the blood stream, assuming circulating blood as 7% of body weight. Cacotheline was injected into the caudal vein under 4% isofluorane gas anesthesia 10 minutes before the behavioural test. In a control group of rats sterile saline injection of equal volume was injected. C. […] D. Discussion: A compound capable of increasing Cx43 hemichannel activity was able to decrease immobility in the FST, indication antidepressant effects. […] This implies that Cx43 modulators are useful to treat depression and other mood disorders.

Cx43 gap junctions = target: T1, Cx43 gap junctions (Homo sapiens, UniProt P17302); experiment: Scrape-loading/dye transfer in Cx43 transfected Hela cells; type: cell-based
T1 construct: expressed in transfected cells; host or cells: HeLa
Protocol: Gap junction permeability was determined at room temperature using the scrape-loading/dye transfer (SL/DT) technique, Hela cells were incubated with Carboxy-fluorescin (1 mg/ml) in the same Ca2+ free HEPES-buffered salt solution as above, then the test compound was added, followed by scrape-loading, which was performed with a razor blade. After 3 minutes the cells are washed with HEPES-buffered salt solution and mounted in Fluoromount and examined by epifluorescence.
A. Animals: All procedures involving animals were in accordance to NIH guidelines and with approval of the bioethical committee of the Universidad Andrés Bello. Sprague Dowley rats (˜60 d old, ˜250 g) were caged individually at 22° C., 12/12 h light/dark cycle. The rats remained in their home box throughout the study, and were removed only briefly for drug microinfusions. B. Drugs: For intra hippocampal microinjections Gap19 ([…] (SEQ ID NO: 3), LifeTein, South Plainfield, N.J., USA, >90% purity) was dissolved in PBS to yield a final solution of 100 μM and cacotheline was dissolved in sterile saline to a final concentration of 10 μM. For intravenous injections, cacotheline was dissolved to a final concentration of 10 μM in the blood stream, assuming circulating blood as 7% of body weight. Cacotheline was injected into the caudal vein under 4% isofluorane gas anesthesia. In a control group of rats sterile saline injection of equal volume was injected. C. Dye uptake: Gap junction permeability was determined at room temperature using the scrape-loading/dye transfer (SL/DT) technique, Hela cells were incubated with Carboxy-fluorescin (1 mg/ml) in the same Ca2+ free HEPES-buffered salt solution as above, then the test compound was added, followed byscrape-loading, which was performed with a razor blade. After 3 minutes the cells are washed with HEPES-buffered salt solution and mounted in Fluoromount and examined by epifluorescence. […]

Sprague Dowley rats [2] = experiment: Contextual fear conditioning after intravenous injection; type: in vivo, rat; details: 10 minutes before training, 10 μM in the blood stream
Protocol: A. Animals: All procedures involving animals were in accordance to NIH guidelines. Sprague Dowley rats (˜60 d old, ˜250 g) were caged individually at 22° C., 12/12 h light/dark cycle. The rats remained in their home box throughout the study, and were removed only briefly for drug microinfusions. B. Drugs: Cacotheline (Pharmeks Ltd. Moscow, Russia) was dissolved in sterile saline to yield a final solution of 10 μM in the blood stream. As a control, only sterile saline injection of equal volume was used. Cacotheline was injected into the caudal vein under 4% isofluorane anesthesia. C. Apparatus: All behavioral essays were performed in a sound attenuating cubicle. Conditioning and testing were conducted in the same chamber. For conditioning, rats were placed in a Plexiglas chamber with a metal grid floor (40 cm×40 cm×40 cm). The chamber was dimly illuminated by a red light. A video camera was mounted at the top of each chamber to allow digital recording throughout the experiments. D. Behavioral procedures: The conditioning is based on the animal learning that a previously neutral stimulus (a conditioned stimulus, CS; e.g. a context) becomes predictive of a stressful stimulus (unconditioned stimulus, US; e.g. footshock). […] During the test, total seconds of freezing (immobility) were calculated for each rat when exposed to the conditioned context for 5 minutes without the footshock. […]

Cx30 hemichannels = target: T2, Cx30 hemichannels (Homo sapiens, UniProt O95452); experiment: EthBr dye uptake in Cx30 transfected Hela cells; type: cell-based
T2 construct: expressed in transfected cells; host or cells: HeLa
Protocol: For visualization of dye uptake by captured images, Cx30 transfected Hela cells were exposed to 25 uM EthBr (Invitrogen, Eugene, Oreg.) for 5 min at room temperature. Then, cells were incubated with either HEPES-buffered salt solution containing 140 mM NaCl, 4 mM KCl, 1 mM CaCl2, 1 mM MgCl2, 5 mM glucose, […] or in calcium free HEPES-buffered salt solution (140 mM NaCl, 4 mM KCl, 5 mM glucose, […]). Then the test compound was added to both solutions followed by EthBr dissolved to a final 25 uM concentration. Cells are washed and mounted in Fluoromount and examined by epifluorescence.

Cx30 gap junctions = experiment: Scrape-loading/dye transfer, Cx30 gap junctions in Hela cells; type: cell-based
Protocol: Gap junction permeability was determined at room temperature using the scrape-loading/dye transfer (SL/DT) technique, Hela cells were incubated with Carboxy-fluorescin (1 mg/ml) in the same Ca2+ free HEPES-buffered salt solution as above. Then the test compound was added. Scrape-loading was then performed with a razor blade. After 3 minutes the cells are washed with HEPES-buffered salt solution and mounted in Fluoromount and examined by epifluorescence.

[3] = microinjected into ventral hippocampus
[4] = microinjected into ventral hippocampus, peptides 100 μM

T1 sequence (P17302 whole entry): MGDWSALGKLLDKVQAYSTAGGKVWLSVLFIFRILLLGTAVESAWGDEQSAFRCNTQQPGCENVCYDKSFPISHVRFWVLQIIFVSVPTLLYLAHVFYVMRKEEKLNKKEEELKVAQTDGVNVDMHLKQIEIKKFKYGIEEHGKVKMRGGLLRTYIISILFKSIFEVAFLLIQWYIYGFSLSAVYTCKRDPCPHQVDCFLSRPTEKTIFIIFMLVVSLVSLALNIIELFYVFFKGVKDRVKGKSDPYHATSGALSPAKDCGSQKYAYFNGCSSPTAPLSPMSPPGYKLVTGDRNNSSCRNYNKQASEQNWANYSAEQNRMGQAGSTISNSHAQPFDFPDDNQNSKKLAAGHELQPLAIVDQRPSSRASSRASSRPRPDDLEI
T2 sequence (O95452 whole entry): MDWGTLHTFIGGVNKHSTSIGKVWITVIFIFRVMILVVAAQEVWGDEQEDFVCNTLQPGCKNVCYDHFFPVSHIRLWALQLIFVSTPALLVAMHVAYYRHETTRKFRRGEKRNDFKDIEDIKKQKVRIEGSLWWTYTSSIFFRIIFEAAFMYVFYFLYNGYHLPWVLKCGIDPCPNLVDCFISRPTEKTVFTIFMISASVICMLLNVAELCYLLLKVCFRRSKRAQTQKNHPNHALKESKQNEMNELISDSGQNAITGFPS

Compound	locomotion (transitions) in the openfield (Sprague Dowley rats [1]; intravenous, 10 μM in the blood stream)	effect on anxiety (Sprague Dowley rats [1]; [3])	time in the center of the openfield (thigmotaxis) (Sprague Dowley rats [1]; [4])	time in the center of the openfield (thigmotaxis) (Sprague Dowley rats [1]; microinjected into ventral hippocampus, peptides 100 μM, listed as cacotheline)	immobility in the FST (rats)	Cx43 gap junctional coupling (Cx43 gap junctions)	Cx43 gap junctional coupling (Cx43 gap junctions; listed as cacotheline)	freezing to conditioned context 24 h after training (Sprague Dowley rats [2])	freezing to conditioned context 24 h after training (Sprague Dowley rats [2]; listed as cacotheline)	locomotion (transitions) in the openfield (Sprague Dowley rats [1]; [4])	Cx30 hemichannel activity (Cx30 hemichannels)	Cx30 gap junctional communication (Cx30 gap junctions)	locomotion (transitions) in the openfield (Sprague Dowley rats [1]; microinjected into ventral hippocampus, peptides 100 μM, listed as Pnx1Li)
O=C(O)C[C@@H]1OCC=C2CN3CC[C@]45C6=CC(=O)C(=O)C([N+](=O)[O-])=C6N[C@H]4[C@H]1[C@H]2C[C@H]35 [Cacotheline, 2,3-Dihydro-4-nitro-2,3-dioxo-9,10-secostrychnidin-10-oic acid]	increase in locomotion at the openfield; also recorded: increase in total locomotion	anxiolytic effects	significant increase in the time spent in the center of the openfield	increase in time at the center of the openfield	significant decrease in immobility time	had no effects on Cx43 gap junctional coupling; also recorded: without affecting Cx43 gap junctions	no effects on gap junctional coupling	increased freezing	increase freezing				
WRQAAFVDSY [Pnx1]		anxiolytic effects	increase in time at the center of the openfield; also recorded: increasing significantly the time in the center of the openfield							increasing significantly			
YGRKKRRQRRRCYDHFFPVSHIR [TAT-Cx30]		anxiolytic effects	increase in time at the center of the openfield			had no effects on Cx43 gap junctional coupling				increase in locomotion at the openfield	increase in Cx30 hemichannel activity		
YGRKKRRQRRRDAPALYSNLSKKRG [TAT-Cx30L4]		anxiolytic effects	statistically significant increase in the time the animals spent in the center							tendency to increase locomotion	increase hemichannel activity	unaffected	
YGRKKRRQRRRRDLDLRDGP [TAT-Pnx1L5, pannexin 1 mimetic peptide]		anxiolytic effects	increasing significantly the time in the center of the openfield							increased locomotion at the openfield			increasing significantly
